Data: BindingDB's records for doi:10.1021/acs.jmedchem.7b00141 (National Institute of Diabetes and Digestive and Kidney …, 2017)

Assays:
[1] = target: Sodium-dependent noradrenaline transporter (Homo sapiens, UniProt P23975); experiment: ChEBML_1661745
Description: Inhibition of [3H]mazindol binding to recombinant human NET expressed in HEK293 cell membranes preincubated for 10 mins followed by radioligand addition measured after 90 mins by micro beta scintillation counting analysis

[2] = target: T1, Sodium-dependent serotonin transporter (Homo sapiens, UniProt P31645); experiment: Inhibition of [3H]mazindol binding to recombinant human SERT expressed in HEK293 cell membranes preincubated for 10 mins followed by radioligand addition measured after 90 mins by micro beta scintillation counting analysis
T1 sequence (P31645 whole entry): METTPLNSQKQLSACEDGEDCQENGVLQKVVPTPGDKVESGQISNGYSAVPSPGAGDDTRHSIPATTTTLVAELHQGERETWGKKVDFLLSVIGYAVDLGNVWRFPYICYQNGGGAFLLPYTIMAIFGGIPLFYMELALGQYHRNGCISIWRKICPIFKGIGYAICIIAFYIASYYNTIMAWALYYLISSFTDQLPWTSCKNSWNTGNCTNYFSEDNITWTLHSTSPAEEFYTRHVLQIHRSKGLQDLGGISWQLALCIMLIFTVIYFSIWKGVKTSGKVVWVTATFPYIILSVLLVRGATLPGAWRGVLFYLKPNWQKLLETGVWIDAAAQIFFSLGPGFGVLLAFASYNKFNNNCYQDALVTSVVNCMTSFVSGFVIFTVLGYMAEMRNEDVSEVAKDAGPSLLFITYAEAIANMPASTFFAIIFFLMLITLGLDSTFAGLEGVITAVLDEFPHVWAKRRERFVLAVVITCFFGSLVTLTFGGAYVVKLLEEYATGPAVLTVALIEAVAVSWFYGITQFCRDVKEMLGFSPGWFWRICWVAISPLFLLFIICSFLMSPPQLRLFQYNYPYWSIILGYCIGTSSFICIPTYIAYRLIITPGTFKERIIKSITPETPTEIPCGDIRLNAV

[3] = target: T1, Sodium-dependent serotonin transporter; experiment: Inhibition of [125I]RTI-55 binding to recombinant human SERT expressed in HEK293 cell membranes preincubated for 10 mins followed by radioligand addition measured after 90 mins by micro beta scintillation counting analysis

Chain of Sodium-dependent noradrenaline transporter (P23975 whole entry): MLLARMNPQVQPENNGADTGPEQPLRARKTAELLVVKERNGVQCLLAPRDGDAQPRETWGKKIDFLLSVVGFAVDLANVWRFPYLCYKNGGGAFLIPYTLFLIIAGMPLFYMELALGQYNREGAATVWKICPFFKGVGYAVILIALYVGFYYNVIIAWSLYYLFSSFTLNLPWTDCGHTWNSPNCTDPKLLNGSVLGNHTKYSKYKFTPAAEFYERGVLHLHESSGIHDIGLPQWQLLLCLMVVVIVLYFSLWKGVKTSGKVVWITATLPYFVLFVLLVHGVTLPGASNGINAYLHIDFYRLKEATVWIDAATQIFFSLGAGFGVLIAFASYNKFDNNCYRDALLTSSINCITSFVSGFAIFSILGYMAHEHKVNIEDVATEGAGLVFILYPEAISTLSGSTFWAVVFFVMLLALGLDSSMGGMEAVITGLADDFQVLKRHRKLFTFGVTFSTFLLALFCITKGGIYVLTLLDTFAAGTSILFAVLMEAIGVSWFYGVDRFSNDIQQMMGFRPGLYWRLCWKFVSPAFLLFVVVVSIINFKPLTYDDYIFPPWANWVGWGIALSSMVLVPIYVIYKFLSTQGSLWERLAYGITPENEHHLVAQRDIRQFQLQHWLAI

Row | SMILES | Ki [1] | Ki [2] | Ki [3]
1 | COC(=O)[C@H]1[C@@H](c2ccc([125I])cc2)CC2CC[C@H]1N2C | 70 nM | 1.3 nM | –
2 | O[C@]1(c2ccc(Cl)cc2)c2ccccc2C2=NCCN21 [Mazanor] | – | 45 nM | 136 nM
